The values that follow come from a melting point compilation (Tetko et al.; mined from patent text by program, amines drawn as free bases though some values may be those of a salt).

Some results are limits rather than exact numbers.

In turn, `COCCNC(=O)c1cc(F)cc(-c2cccc3c(C)c(Cc4cccc(C(F)(F)F)c4)sc23)c1` returned a melting point of 124 to 126 °C. As for `C=CCOc1cc2c(cc1C)OC1(CC(C)(C)c3cc(O)c(C)cc3O1)CC2(C)C` (configuration not stated), the figure is 143 to 144 °C; as for `N#Cc1ccc(-c2ccccc2)c(NC(=O)Nc2cccnc2)c1`, 180 to 182 °C; as for `COc1cc(C=O)ccc1OCCBr`, 61 to 64 °C.

In turn, `Nc1cc2[nH]c(=O)oc2cc1NC(=O)C(=O)N1CCC(Cc2ccccc2)CC1` came in with a melting point of 296 °C. The value for `CC1=C(N)C(C)C2CC(C)(CC3=CCN(c4ccc(-n5ccnc5)cc4)CC3)OC2=C1C` (configuration not stated) was 161 to 163 °C; that for `COC(=O)CSC=C1C(=O)OC(C)(C)OC1=O` was 117 to 118 °C.

Take `CC(=O)C1=C(O)c2c(c3ccccc3n2C)S(=O)(=O)N1`: the melting point lay in the range of 210 to 211 °C. For the molecule `CC1=C(S(C)(=O)=O)C(c2ccccc2[N+](=O)[O-])C(C(=O)OC2CCCC2)=C(N=CN(C)C)N1` (configuration not stated), the melting point stood at 175 °C. In turn, `CC(C)(C)OC(=O)Nc1cc(CC#N)c(I)cc1[N+](=O)[O-]` yielded a melting point of 124 to 126 °C. As for `Nc1ccc(CCCCC(=O)O)nc1`, the figure is 80 to 82 °C; as for `Cn1ncc2c1-c1c(S(C)(=O)=O)sc(S(=O)(=O)Cl)c1CC2`, 81 to 82 °C. Molecule `O=C1Nc2cccc(F)c2C(=O)N2CC=C[C@@H]12` had a melting point of 238 to 240 °C.

As to `CC1Nc2ccc(Cl)c3cccc(c23)S1(=O)=O` (configuration not stated), the melting point stood at 150 °C. Turning to `O=C(c1ccncc1)c1ccc(Cl)c([N+](=O)[O-])c1`, the melting point is 114 to 116 °C. As for `Cc1c(-c2ccc(F)cc2)oc2c(-c3ccc(S(C)(=O)=O)cc3)c(-c3ccc(F)cc3)nn12`, the figure is 289 to 291 °C. The value for `CCOC(=O)/C=C/c1cc(-c2ncc(C(F)(F)F)cc2Cl)ccc1Cl` was 118 to 120 °C; that for `CC1(C2=CCC3C4CCC5CC(O)CCC5(C)C4C(O)CC23C)OCCO1` (configuration not stated) was 214 to 218 °C; that for `Nc1ccc(-c2nc3cc(OCc4ccccc4)ccc3s2)c(Cl)c1` was 119 to 121 °C.

As to `CCCCCCCCCCCCCCCCCCCC(=O)OCC(O)COC(=O)CCCCCCCCCCCCCCCCCCC`, the melting point was 83 to 84 °C. As for `CC(=O)N1CCC2(CC1)CN=C(c1cc3cccc(N(C)S(=O)(=O)c4cccs4)c3[nH]1)S2`, the figure is 216 to 218 °C. The value for `Clc1ccc2nc(Cl)c(-c3ccccc3)cc2c1` was 147 to 149 °C. As for `O=C1C2CC3CCC(C2)N3C1C(c1ccccc1)c1ccccc1` (configuration not stated), the figure is 137 to 138 °C; as for `CC(C)S(=O)(=O)c1cc(OCCc2ccccn2)c2[nH]nc(Nc3cnccn3)c2c1`, 195 to 196 °C. Regarding `COc1ccc2cc(CNC(=O)c3oc4ccccc4c3C)ccc2c1Br`, the melting point lay within 154 to 156 °C. The value for `COc1cc(C(=O)N(C2CCCC2)C2CCCC2)ccc1Cn1cccc2ncnc1-2` was 223 to 224 °C.

In turn, `Cc1nnc2ccc(-c3cccc(NC(=O)C4CC4)c3)nn12` yielded a melting point of 255 to 258 °C.

As to `O=[N+]([O-])c1ccc(Oc2ccc(N3CCN(c4ccncc4)CC3)cc2)nc1`, the melting point was in the range of 174 to 175 °C.

In the case of `O=C1c2ccccc2C(=O)N1OCC1OC(n2ccc(=O)[nH]c2=O)CC1O` (configuration not stated), the melting point was 241 to 242 °C. The value for `CCOC(=O)CC[C@H](NC(=O)OCc1ccccc1)C(=O)O` was 82 to 84 °C; that for `N#CC=Cc1ccc(Cc2ncc[nH]2)cc1` was 118 to 120 °C. As for `Clc1ccc(-n2ncc3c2-c2ccccc2C3)cc1`, the figure is 128 to 129 °C; as for `S=c1[nH]c2cc(Cl)cc(OCCNCc3ccccc3)c2[nH]1`, > 250 °C; as for `O=C1C2CCC(N2)C(=O)N1Cc1ccccc1`, 72 °C. The value for `CC1(C)CCC(C)(C)c2cc(C3=NN(c4ccc(C(=O)O)cc4)CC3)ccc21` was 276 to 278 °C. `CN(C)CCNC1=CC(=O)c2nc(-c3ccc(F)cc3)sc2C1=O` displayed a melting point of 246 to 247 °C. On to `CC(=O)OCC1CCn2c(c(C3=C(c4cn(C)c5ccc(Br)cc45)C(=O)OC3=O)c3ccccc32)C1` (configuration not stated), for which the melting point lay in the range of 215 to 220 °C. The value for `O=C(O)C(c1ccc(Cl)cc1)c1c(Cl)cc(-n2ncc(=O)[nH]c2=O)cc1Cl` (configuration not stated) was 220 °C; that for `COC(=O)[C@@H]1CCCN1C(=O)c1cccc(O)c1[N+](=O)[O-]` was 114 to 116 °C. As for `CN(C(=O)OC(C)(C)C)c1cc(Oc2ccc(Cc3ccccc3)cc2)ccc1N`, the figure is 114 to 115 °C; as for `CCOC(=O)c1csc(-c2ccccc2[N+](=O)[O-])n1`, 82 to 84 °C. As for `COc1ccccc1Nc1cc(-c2c(-c3cccc(C)c3)nc3cccnn23)ccn1`, the figure is 157 to 158 °C; as for `CC(C)(C)c1cc(CCc2ccccc2NC(=O)NCC(C)(C)c2ccc(Cl)c(Cl)c2)cc(C(C)(C)C)c1O`, 165 to 167 °C; as for `CC(C)(C)c1ccc2c(c1)C(C(=O)O)c1ccccc1CO2` (configuration not stated), 197 to 198 °C.

For the molecule `CC(Oc1cc(Oc2ccc(C(F)(F)F)cc2Cl)ccc1[N+](=O)[O-])C(=O)NCc1ccco1` (configuration not stated), the melting point was in the range of 128 to 130 °C. As for `CCOC(=O)c1cc2c(C)cccc2n1CCC(=O)OC(C)(C)C`, the figure is 78 to 79 °C. The value for `COc1c(OC(C)=O)ccc(C=O)c1[N+](=O)[O-]` was 84 to 86 °C; that for `O=C(NCCc1ccc(O)c(O)c1)C1CC1` was 174 to 176 °C. With `COc1ccc(C(=O)c2ccsc2)cc1`, the melting point fell in the range of 58 to 61 °C.

`CC(C)COC(=O)[C@H](CC(=O)OCc1ccccc1)NC(=O)CCCCNC(=O)OC(C)(C)C` displayed a melting point of 64 to 66 °C.

The molecule `CS(=O)(=O)c1c(C#N)nn(-c2c(Cl)cc(C(F)(F)F)cc2Cl)c1-n1cccc1` came in with a melting point of 200 to 202 °C. As for `COc1cc(NC(=O)C(F)(F)F)ccc1N1CCN(CCN(C(=O)C2CCCCC2)c2ccccn2)CC1`, the figure is 144 to 148 °C. As for `CNCc1cc(OC)c(-c2ccc(C[C@H](NC(=O)c3c(Cl)cccc3Cl)C(=O)O)cc2)c(OC)c1`, the figure is 274 °C; as for `O=C1Cc2c(ccc3c2OC(CNCc2ccccc2)CC3)N1` (configuration not stated), 128 °C. Turning to `COC(=O)c1cc(Cl)c(Oc2ccc(OC)c(Cc3ccc(F)cc3)c2)c(Cl)c1`, the melting point is 108 to 110 °C.

Molecule `COc1cccc(NC(=O)c2sccc2S(=O)(=O)Nc2onc(C)c2Br)c1` had a melting point of 200 to 202 °C. The value for `CCOC(=O)c1ccc(C2CC(=O)N(C)C2C(O)c2ccc(-c3ccccc3)s2)cc1` (configuration not stated) was 177 to 179 °C; that for `CS(=O)(=O)c1ccc(-c2sc(NCc3ccccc3)nc2-c2ccc(F)cc2)cc1` was 112 °C. As for `CCCCNc1cc(C(=O)O)cc(S(N)(=O)=O)c1Oc1ccc(S(N)(=O)=O)cc1`, the figure is 265 °C; as for `OC(c1ccc(F)cc1)c1ccc2noc(-c3cccc(Cl)c3)c2c1` (configuration not stated), 171 °C. For the molecule `O=[N+]([O-])c1ccc2c(c1)S(=O)(=O)c1cc(F)ccc1-2`, the melting point lay within 275 to 279 °C. The value for `O=[N+]([O-])c1ccc(F)c(-c2ccsc2)c1` was 65 °C; that for `CSc1n[nH]c(=O)n1C` was 97 °C. The value for `O=C(O)c1ccc(C(F)F)c2ccccc12` was 179 to 180 °C; that for `NCC1CCc2[nH]c3ccc(Cl)c(Cl)c3c2C1` (configuration not stated) was 169 to 170 °C; that for `CN1CCNCCNCCNCCNCC1` was 71 to 72.5 °C.

Molecule `CCCCNC(=O)Nc1ccc(N(C)C)cc1C(=O)NCC1CCN(C(c2ccccc2)c2ccccc2)CC1` returned a melting point of 201 to 203 °C.

In turn, `CN1C(=O)C(C)(C)N=C(c2ccccc2Cl)c2cc([N+](=O)[O-])ccc21` returned a melting point of 177 to 178 °C. As for `CCN1c2ncc(C=Cc3cccc(C)c3)cc2C(=O)N(C)c2cccnc21`, the figure is 207 to 208 °C; as for `O=C(O)COC1=C(Cc2ccc3c(Cl)cccc3c2)C(=O)CC1`, 156 to 158 °C. As for `CC(C)n1nc(-c2sc(NC(=O)c3ccc(Cl)cc3)nc2-c2ccccc2)ccc1=O`, the melting point lay within 205 to 206 °C. The value for `COC(=O)c1ccc(N2CCN(S(C)(=O)=O)CC2)nc1` was 205 to 207 °C; that for `CC1CCCN1CCCOc1ccc2c(c1)CCC1CC(=O)NN=C21` (configuration not stated) was 193 to 195 °C. As for `O=CNc1ccnc(C(=O)Nc2ccc(Oc3ccccc3)cc2)c1O`, the figure is 208 °C. As for `O=C1OC(c2ccccc2)N=C1CCCCNC(=O)c1ccccc1` (configuration not stated), the figure is 118 to 122 °C. `CC(C)(C)OC(=O)c1ncn2c1[C@@H]1CCCN1C(=O)c1c(Br)cccc1-2` gave a melting point of 206 to 208 °C. The value for `CCOC(=O)OC1=C(c2c(C)cc(C)cc2C)C(=O)N(O)C12CCN(OC)CC2` was 154 to 155 °C; that for `O=C(N[C@H](Cc1ccccc1)C(=O)O)OCc1ccc2oc(Cc3ccccc3)cc2c1` was 201 to 204 °C; that for `c1ccc(Cn2nnc3ccc(Cn4ccnc4)cc32)cc1` was 85.4 °C. Molecule `COc1ccc2[nH]c(C(=O)OC(C)(C)C)c(N)c2c1` displayed a melting point of 146 to 147 °C. The value for `COc1ccccc1C1(O)C(=O)Nc2cc(Cl)c(Cl)cc21` (configuration not stated) was 245 to 246 °C; that for `CC1(C)OC(=O)C(=[N+]=[N-])C(=O)O1` was 93 to 94 °C; that for `CCCCCCCCOc1ccc(-c2cnc(C(=O)O)c(C(=O)O)n2)cc1` was 163 °C.

On to `CCCCCCCCC1(CCCCCCCC)c2cc(Cl)ccc2-c2ccc(Cl)cc21`, for which the melting point was 50 to 51 °C.

Regarding `COc1ccccc1CN1CCN(CCCOc2ccc3c(C)cc(=O)[nH]c3c2)CC1`, the melting point lay in the range of 151 to 152 °C.

For the molecule `O=C(NN1CCCCC1)c1nn(-c2ccccc2-c2ccccc2Cl)c2c1C1CC3CC(C1)CC2C3`, the melting point amounted to 206 °C.

Regarding `O=C(NCc1ccc(Cl)cc1)c1cnc2c(F)cc(C#CCCCO)cc2c1O`, the melting point is 208 to 209 °C.
